According to patent publication EP0185130A1, “5-Alkoxy-2,4,6-triodo or tribromo-isophthalic-acid derivatives, process for their preparation and X-ray contrast agents containing them” (BRACCO INDUSTRIA CHIMICA Società per Azioni, priority 1984, dated 1986):
≈ marks a conversion by molar mass, not a printed value.

test: Water solubility; format: physicochemical; details: bei 25 °C

SMILES | Wasserlöslichkeit
CC(Oc1c(I)c(C(=O)NC(CO)CO)c(I)c(C(=O)NC(CO)CO)c1I)C(=O)N(C)CC(O)C(O)CO (stereo not drawn) [Beispiel 22, (5-(1(N-Methyl-N-2,3,4-trihydroxybutyl)aminocarbonyl)ethoxy)-2,4,6-trijodisophthalsäure-bis(1,3-dihydroxyisopropylamid)] | > 100 % (g/v)

same assay, conditions: result in words, no temperature stated

SMILES | Wasserlöslichkeit
O=C(NC(CO)CO)c1c(I)c(OCC(CO)(CO)CO)c(I)c(C(=O)NC(CO)CO)c1I [Beispiel 10, 5-(2,2-Bis-(hydroxymethyl)-3-hydroxypropyl)oxy-2,4,6-trijodisophthal-säure-bis(1,3-dihydroxyisopropylamid)] | spielend leicht wasserlöslich
O=C(NC(CO)CO)c1c(I)c(OC(CO)CO)c(I)c(C(=O)NC(CO)CO)c1I [Beispiel 9, 5-(1,3-Dihydroxyisopropyl)oxy-2,4,6-trijodisophthalsäure-bis(1,3-di-hydroxyisopropylamid)] | in Wasser leicht löslich
O=C(NC(CO)CO)c1c(I)c(OCC(O)CO)c(I)c(C(=O)NC(CO)CO)c1I (stereo not drawn) [Beispiel 8, 5-(2,3-Dihydroxypropyl)oxy-2,4,6-trijodisophthalsäure-bis(1,3-dihydroxy-isopropylamid)] | löslich in Wasser

Now from value to molecule:

Wasserlöslichkeit | SMILES
Wenig löslich in Wasser | O=C(NCC(O)CO)c1c(I)c(OCCOCCOCCOc2c(I)c(C(=O)NCC(O)CO)c(I)c(C(=O)NCC(O)CO)c2I)c(I)c(C(=O)NCC(O)CO)c1I (stereo not drawn) [Beispiel 44, 1,8-Bis-(3,5-bis(2,3-dihydroxypropylaminocarbonyl)-2,4,6-trijod-phenoxy)-3,6-dioxan]
Wenig löslich in Wasser | O=C(NC(CO)CO)c1c(I)c(OCCOCCOCCOc2c(I)c(C(=O)NC(CO)CO)c(I)c(C(=O)NC(CO)CO)c2I)c(I)c(C(=O)NC(CO)CO)c1I [Beispiel 43, 1,8-Bis-(3,5-bis(1,3-dihydroxyisopropylaminocarbonyl)-2,4,6-trijod-phenoxy)-3,6-dioxaoctan]
leicht löslich in Wasser | O=C(COc1c(I)c(C(=O)NC(CO)CO)c(I)c(C(=O)NC(CO)CO)c1I)NCC(O)CO (stereo not drawn) [Beispiel 49, 5-(2,3-Dihydroxypropylaminocarbonyl)methoxy-2,4,6-trijodisophthalsäure-bis(1,3-dihydroxyisopropylamid)]
gut wasserlöslich | O=C(NCC(O)CO)c1c(I)c(OCCOCCOCCOCCOCCOc2c(I)c(C(=O)NCC(O)CO)c(I)c(C(=O)NC(CO)CO)c2I)c(I)c(C(=O)NC(CO)CO)c1I (stereo not drawn) [Beispiel 45, 1,14-Bis-(3-(1,3-dihydroxyisopropylaminocarbonyl)-5-(2,3-dihydroxy-propylaminocarbonyl)-2,4,6-trijodphenoxy)-3,6,9,12-tetraoxatetradecan]
wasserlöslich | O=C(COc1c(I)c(C(=O)NC(CO)CO)c(I)c(C(=O)NC(CO)CO)c1I)NCC(O)C(O)CNC(=O)COc1c(I)c(C(=O)NC(CO)CO)c(I)c(C(=O)NC(CO)CO)c1I (stereo not drawn) [Beispiel 47, 1,4-Bis-(3,5-bis(1,3-dihydroxyisopropylaminocarbonyl)-2,4,6-trijod-phenoxy-acetylamino)-2,3-dihydroxybutan]
leicht löslich in Wasser | O=C(COc1c(I)c(C(=O)NCC(O)CO)c(I)c(C(=O)NCC(O)CO)c1I)NC(CO)CO (stereo not drawn) [Beispiel 48, 5-(1,3-Dihydroxyisopropylaminocarbonyl)methoxy-2,4,6-trijodisophthal-säure-bis(2,3-dihydroxypropylamid)]

same assay, conditions: water, bei 20 °C; read-out: Wasserlöslichkeit

SMILES | solubility [mg/mL]
CN(CC(O)CO)C(=O)COc1c(I)c(C(=O)NC(CO)CO)c(I)c(C(=O)NC(CO)CO)c1I (stereo not drawn) [Beispiel 19, 5-(N-Methyl-N-2,3-dihydroxypropyl)aminocarbonylmethoxy-2,4,6-trijodiso-phthalsäure-bis-(1,3-dihydroxyisopropylamid)] | > 1000
O=C(COc1c(I)c(C(=O)NCC(O)CO)c(I)c(C(=O)NCC(O)CO)c1I)NCC(O)CO (stereo not drawn) [Beispiel 32, 5-(2,3-Dihydroxypropylaminocarbonylmethoxy)-2,4,6-trijodisophthalsäure-bis(2,3-dihydroxypropylamid)] | 10 (≈ 11.9 mM)
O=C(COc1c(Br)c(C(=O)NC(CO)CO)c(Br)c(C(=O)NC(CO)CO)c1Br)NC(CO)CO [Beispiel 12, 5-(1,3-Dihydroxyisopropylaminocarbonyl)methoxy-2,4,6-tribromisophthal-säure-bis(1,3-dihydroxyisopropylamid)] | > 1000
CC(CO)(CO)NC(=O)COc1c(I)c(C(=O)NC(CO)CO)c(I)c(C(=O)NC(CO)CO)c1I [Beispiel 15, 5-(1,3-Dihydroxy-2-methylisopropylaminocarbonyl)methoxy-2,4,6-trijodiso-phthalsäure-bis(1,3-dihydroxyisopropylamid)] | 16 (≈ 18.8 mM)
CN(C[C@H](O)[C@@H](O)[C@H](O)[C@H](O)CO)C(=O)COc1c(I)c(C(=O)NC(CO)CO)c(I)c(C(=O)NC(CO)CO)c1I [Beispiel 27, 5-(N-Methyl-N-2,3,4,5,6-pentahydroxyhexyl)aminocarbonylmethoxy-2,4,6-trijodisophthalsäure-bis(1,3-dihydroxyisopropylamid)] | 1000 (≈ 1060 mM)
C[C@@H](Oc1c(I)c(C(=O)NC(CO)CO)c(I)c(C(=O)NC(CO)CO)c1I)C(=O)N(C)CC(O)CO (stereo partly drawn) [Beispiel 20 R] | > 1000
CC(Oc1c(I)c(C(=O)NC(CO)CO)c(I)c(C(=O)NC(CO)CO)c1I)C(=O)N(C)CC(O)CO (stereo not drawn) [Beispiel 20 R,S] | > 1000

Continued, values first:

solubility [mg/mL] | SMILES
≥ 1000 | CN(CC(O)CO)C(=O)COc1c(I)c(C(=O)NC(C)(CO)CO)c(I)c(C(=O)NC(C)(CO)CO)c1I (stereo not drawn) [Beispiel 39, 5(N-Methyl-N-2,3-dihydroxypropyl)aminocarbonylmethoxy-2,4,6-trijod-isophthalsäure-bis(1,3-dihydroxy-2-methylisopropylamid)]
> 1000 | CN(C[C@H](O)[C@@H](O)[C@H](O)[C@H](O)CO)C(=O)COc1c(Br)c(C(=O)NCC(O)CO)c(Br)c(C(=O)NCC(O)CO)c1Br (stereo partly drawn) [Beispiel 38, 5-(N-Methyl-N-2,3,4,5,6-pentahydroxyhexyl)aminocarbonylmethoxy-2,4,6-tribromisophthalsäure-bis(2,3-dihydroxypropylamid)]
> 1000 | CN(C[C@H](O)[C@@H](O)[C@H](O)[C@H](O)CO)C(=O)COc1c(I)c(C(=O)NCC(O)CO)c(I)c(C(=O)NCC(O)CO)c1I (stereo partly drawn) [Beispiel 37, 5-(N-Methyl-N-2,3,4,5,6-pentahydroxyhexyl)aminocarbonylmethoxy-2,4,6-trijodisophthalsäure-bis(2,3-dihydroxypropylamid)]

same assay, conditions: water, bei 25 °C; read-out: Wasserlöslichkeit

solubility [mg/mL] | SMILES
> 1000 | CC(Oc1c(I)c(C(=O)NC(CO)CO)c(I)c(C(=O)NC(CO)CO)c1I)C(=O)N(C)C[C@H](O)[C@@H](O)[C@H](O)[C@H](O)CO (stereo partly drawn) [Beispiel 28 R,S]
> 1000 | O=C(NC(CO)CO)c1c(I)c(OCC(=O)N(CCO)CCO)c(I)c(C(=O)NC(CO)CO)c1I [Beispiel 17]
> 1000 | C[C@@H](Oc1c(I)c(C(=O)NC(CO)CO)c(I)c(C(=O)NC(CO)CO)c1I)C(=O)N(C)C[C@H](O)[C@@H](O)[C@@H](O)CO [Beispiel 26, R-5(1((N-Methyl-N-2,3,4,5-tetrahydroxypentyl)aminocarbonyl)ethoxy)-2,4,6-trijodisophthalsäure-bis(1,3-dihydroxyisopropylamid)]
> 1000 | CN(C[C@H](O)[C@H](O)CO)C(=O)COc1c(I)c(C(=O)NCC(O)CO)c(I)c(C(=O)NCC(O)CO)c1I (stereo partly drawn) [Beispiel 35, 5-(N-Methyl-N-2,3,4-trihydroxybutyl)aminocarbonylmethoxy-2,4,6-trijod-isophthalsäure-bis(2,3-dihydroxypropylamid)]
12 (≈ 14.9 mM) | O=C(COc1c(I)c(C(=O)NCC(O)CO)c(I)c(C(=O)NCC(O)CO)c1I)NCCO (stereo not drawn) [Beispiel 31, 5-(2-Hydroxyethylaminocarbonylmethoxy)-2,4,6-trijodisophthalsäure-bis(2,3-dihydroxypropylamid)]
> 1000 | C[C@@H](Oc1c(I)c(C(=O)NC(CO)CO)c(I)c(C(=O)NC(CO)CO)c1I)C(=O)N(C)C[C@H](O)[C@@H](O)[C@H](O)[C@H](O)CO [Beispiel 28 R]
> 1000 | CC(Oc1c(I)c(C(=O)NC(CO)CO)c(I)c(C(=O)NC(CO)CO)c1I)C(=O)N(CCO)CCO (racemic) [Beispiel 18]
> 1000 | CN(C[C@H](O)[C@@H](O)[C@@H](O)CO)C(=O)COc1c(I)c(C(=O)NCC(O)CO)c(I)c(C(=O)NCC(O)CO)c1I (stereo partly drawn) [Beispiel 36, 5-(N-Methyl-N-2,3,4,5-tetrahydroxypentyl)aminocarbonylmethoxy-2,4,6-trijodisophthalsäure-bis(2,3-dihydroxypropylamid)]

same assay, conditions: water, bei Raumtemperatur; read-out: Wasserlöslichkeit

solubility [mg/mL] | SMILES
> 1000 | CCOCCOCCOc1c(I)c(C(=O)N(CCO)CC(O)CO)c(I)c(C(=O)N(CCO)CC(O)CO)c1I (stereo not drawn) [Beispiel 41, 5-(3,6-Dioxaoctyl)oxy-2,4,6-trijodisophthalsäure-bis(N-2-hydroxyethyl-N-2,3-dihydroxypropylamid)]

same assay, conditions: water, bei Siedetemperatur; read-out: Wasserlöslichkeit

solubility [mg/mL] | SMILES
100 (≈ 119 mM) | O=C(COc1c(I)c(C(=O)NCC(O)CO)c(I)c(C(=O)NCC(O)CO)c1I)NCC(O)CO (stereo not drawn) [Beispiel 32, 5-(2,3-Dihydroxypropylaminocarbonylmethoxy)-2,4,6-trijodisophthalsäure-bis(2,3-dihydroxypropylamid)]
100 (≈ 129 mM) | CNC(=O)COc1c(I)c(C(=O)NC(CO)CO)c(I)c(C(=O)NC(CO)CO)c1I [Beispiel 11, 5-Methylaminocarbonylmethoxy-2,4,6-trijod-isophthalsäure-bis(1,3-di-hydroxyisopropylamid)]
20 (≈ 25.7 mM) | CNC(=O)COc1c(I)c(C(=O)NCC(O)CO)c(I)c(C(=O)NCC(O)CO)c1I (stereo not drawn) [Beispiel 30, 5-Methylaminocarbonylmethoxy-2,4,6-trijodisophthalsäure-bis(2,3-di-hydroxypropylamid)]
1000 (≈ 1170 mM) | CC(CO)(CO)NC(=O)COc1c(I)c(C(=O)NC(CO)CO)c(I)c(C(=O)NC(CO)CO)c1I [Beispiel 15, 5-(1,3-Dihydroxy-2-methylisopropylaminocarbonyl)methoxy-2,4,6-trijodiso-phthalsäure-bis(1,3-dihydroxyisopropylamid)]
130 (≈ 161 mM) | O=C(COc1c(I)c(C(=O)NCC(O)CO)c(I)c(C(=O)NCC(O)CO)c1I)NCCO (stereo not drawn) [Beispiel 31, 5-(2-Hydroxyethylaminocarbonylmethoxy)-2,4,6-trijodisophthalsäure-bis(2,3-dihydroxypropylamid)]

same assay, conditions: water, no temperature stated; read-out: Wasserlöslichkeit

solubility [mg/mL] | SMILES
> 500 | CCOCCOCCOc1c(I)c(C(=O)NCC(O)CO)c(I)c(C(=O)NC(CO)CO)c1I (stereo not drawn) [Beispiel 42, 1-(3-(1,3-Dihydroxyisopropylaminocarbonyl)-5-(2,3-dihydroxypropylamino-carbonyl)-2,4,6-trijod-phenoxy)-3,6-dioxaoctan]
> 1000 | CN(C[C@@H](O)[C@H](O)[C@H](O)CO)C(=O)COc1c(I)c(C(=O)NC(CO)CO)c(I)c(C(=O)NC(CO)CO)c1I [Beispiel 25, 5-(N-Methyl-N-2,3,4,5-tetrahydroxypentyl)aminocarbonylmethoxy-2,4,6-trijodisophthalsäure-bis(1,3-dihydroxyisopropylamid)]
